Columns and labels:
Format in all cases: binding
[1] = tested on: Aptamer 21; assay: Capture of Aptamer 21 with click-biotinylated probes; settings: Aptamer 21 or Aptamer 21-E
Method: A 50 μL sample of 1 μM folded Aptamer 21 or Aptamer 21-E solution in folding buffer (20 mM TrisHCl pH 8, 100 mM KCl, 3 mM MgCl2) was added to a 0.5 μL aliquot of 0.5 mM ARK-729, ARK-2058, ARK-816, or ARK-2059 in DMSO or a DMSO-only control. The solution was incubated at 37° C. for 1 h and then irradiated with long wave UV light (˜365 nm) for 30 min in a UV crosslinker (Fisher Scientific). To this solution was added 0.5 μL of 10 mM DBCO-biotin (Click Chemistry Tools, cat. #A105) and 2 μL of 0.5 M EDTA pH 8 and then the solution was incubated at 65° C. for 2 h. The RNA was ethanol precipitated by adding 35 μL of water, 2 uL of 5 mg/mL glycogen, 10 μL 3 M NaOAc pH 5, and 250 μL ethanol, incubating at −80° C. for 1 h, centrifuging at 20000×g for 30 min, washing the pellet twice with 500 μL of 70% ethanol, and then air drying the pellet.
The RNA pellet was redissolved in 50 μL of 1× bind/wash buffer (20 mM TrisHCl pH 7, 100 mM KCl, 0.1% Tween-20). A 50 μL aliquot of MyOne Streptavidin C1 Dynabead slurry (Thermo) was captured on a magnet, washed twice with 50 μL of 1× bind/wash buffer, and then resuspended in 50 μL of the crosslinked RNA sample. The bead suspension was rotated at room temperature for 30 min and then washed twice with 100 μL of 1× bind/wash solution. […]

[2] = tested on: Aptamer 21 spiked into polyA+ RNA extract; assay: Capture of Aptamer 21 from PolyA+ RNA extract; settings: versus warhead-only control ARK-2059
Method: Total RNA was extracted from a pellet of 5×10^6 HepG2 cells using the ReliaPrep mini-prep kit (Promega) according to the manufacturer's standard protocol. The polyA+ RNA fraction was isolated from 50 μL sample of total RNA at 454 ng/μL using the magnetic mRNA isolation kit (New England Biolabs, cat #S1550) according to the manufacturer's standard protocol using 450 μL of lysis buffer and 100 μL of beads.
A sample of folded aptamer 21 RNA was spiked into a sample of polyA+ RNA extract at a final concentration of 1 nM aptamer 21 and 3 ng/μL polyA+ RNA. […]
Sequencing was performed on a single Illumina HiSeq 4000 lane with 150 bp paired-end reads using the standard manufacturer protocol.
Stitched reads were then processed with Cutadapt (http://dx.doi.org/10.14806/ej.17.1.200) with at least 5-nts of overlap and a maximum of 20% mismatches to simultaneously 1) define a unique 6-nt unique molecular identifier (UMI) in the correct adapter context (ATATAGGN6AGATCGG) (SEQ. […] UMIs were appended to read names, and reads were mapped the against the genome and transcriptome references (plus Aptamer 21) using the STAR aligner (http://dx.doi.org/10.1093/bioinformatics/bts635) with at most 10% mismatches. Groups of reads with identical or near-identical UMIs were then collapsed using the Directional Adjacency methods of UMI-tools (http://dx.doi.org/10.1101/gr.209601.116) with default parameters. […]

[3] = tested on: PreQ1 RNA; assay: Reverse transcriptase pausing gel assay of photo-crosslinking to PreQ1 RNA; settings: 1 uM RNA, 9 uM PreQ1 probe, UV ~360 nm
Method: (§1) A solution of RNA at 2 to 5 μM in nuclease-free water was heated to 95° C. for 3 min and then cooled on ice for 2 min. This solution was diluted with ½ volume of 3×RNA folding buffer (60 mM TrisHCl pH 8, 300 mM KCl, 9 mM MgCl2) and incubated at 37° C. for 20 min. Folding was carried out immediately before use of the RNA in each experiment. In cases where a mixture of RNA molecules was used in vitro the RNAs were folded separately and then combined prior to the probing experiment.
[…] The sample was then irradiated with long wave UV light (˜365 nm) for 30 min in a UV crosslinker (Fisher Scientific).
(§2) A 3.75 μL aliquot of 10 μM reverse transcription primer was added to the cross-linked RNA sample, which was then incubated for 5 min at 65° C. and then cooled on ice. The sample was then diluted to a final volume of 60 μL and final buffer concentration of 1× Protoscript-II buffer (New England Biolabs), 0.5 mM dNTPs, 10 mM DTT, 0.4 U/μL RNase Inhibitor (New England Biolabs), and 10 U/μL Protoscript-II (New England Biolabs). The reaction was incubated at 45° C. for 2 h, 65° C. for 20 min, and then 4° C.
The RNA was hydrolyzed by the addition of 4.8 μL of 2.5 M NaOH and heating at 95° C. for 5 min. […]
The cDNA pellet was resuspended in 12 μL of 1×TBE-urea sample loading buffer (Bio-Rad) and heated to 95° C. for 5 min. […] The gel fluorescence was imaged on an Azure c600 instrument.

[4] = tested on: Aptamer 21; assay: Reverse transcriptase pausing (drop-off) gel assay of photo-crosslinking to Aptamer 21; settings: 1 uM RNA, 10 uM probe (9 uM PreQ1 probe), UV ~360 nm
Method: as §1
Folded RNA (1 μM) was incubated with the photoaffinity probe (10 μM) in total 25 μL of buffer (20 mM TrisHCl pH 8, 100 mM KCl, 3 mM MgCl2) with 2.5% DMSO for 30 min at 37° C. to allow binding to come to equilibrium. The sample was then irradiated with long wave UV light (˜365 nm) for 30 min in a UV crosslinker (Fisher Scientific).
as §2
The RNA was hydrolyzed by the addition of 4.8 μL of 2.5 M NaOH and heating at 95° C. for 5 min. The reaction was quenched by the addition of 0.9 μL of acetic acid. The cDNA was precipitated by the addition of 6.6 μL of 3 M sodium acetate pH 5 and 181 μL ethanol, cooling to −80° C. for 1 h, and then centrifuging at 20,500×g at 4° C. for 30 min. The cDNA pellet was washed twice with 500 μL of 70% ethanol and then air dried for 5 min.
The cDNA pellet was resuspended in 12 μL of 1×TBE-urea sample loading buffer (Bio-Rad) and heated to 95° C. for 5 min. The sample was then run on a pre-cast 8.6×6.7 cm TBE-urea 10% PAGE gel (Bio-Rad) at 120 V until the lower bromophenol blue dye reached the bottom of the gel. The gel was stained with 1×SYBR-gold (Invitrogen) in 1×TBE buffer at room temperature for 20 min covered from light. The gel fluorescence was imaged on an Azure c600 instrument.

cross-linking to PreQ1 RNA (RT pausing) [3]	cross-linking with Apt21 RNA (RT pausing) [4]	SMILES	RT pausing peaks after click-biotinylation and avidin bead enrichment [1]	enrichment analysis of Aptamer 21 from PolyA+ RNA extract ([2]; avidin capture, next-generation sequencing)	RT pausing ratio peaks on Aptamer 21 spiked into PolyA+ RNA extract ([2]; extract from HepG2 cells)
		COC(=O)C1=C(COCc2cn(CCOCCOCCC(=O)NCCC3(CCN=[N+]=[N-])N=N3)nn2)NC(c2ccncc2)=NC1c1ccc(F)cc1Cl (centres unmarked) [ARK-816]	RT pausing peaks specific to Aptamer 21	Enrichment of the sites of probe-specific RT pausing on Aptamer 21 was observed	observed at the same positions as for isolated Aptamer 21
does not show cross-linking	does not show cross-linking	CC1(CCC(=O)NCCOCCOCCNCc2c[nH]c3nc(N)[nH]c(=O)c23)N=N1 [I-23]			
